Patent US7256200B2, “Method and composition for potentiating an oplate analgesic” (The Board of Trustees of the University of Illinois, a body …, priority 2003, dated 2007)
“Also recorded” adds a separate entry of the source.

How the values were obtained:
[1] = Acute model of opioid tolerance (single s.c. morphine 100 mg/kg); assay type: in vivo; details: for prevention of opioid tolerance, acute model: administered simultaneously with morphine 100 mg/kg s.c., FIG. 6
Excerpt: (§1) Acute tolerance and dependence model is a method commonly used by researchers. […] In addition, the CaMKII inhibitor KN93 also was effective in reversing an already-established tolerance or dependence in the model (FIGS. 8 and 9). […] All effects are dose-dependent on the magnitude of inhibition of CaMKII.

CaMKII [2] = target: CaMKII (Homo sapiens, UniProt Q9UQM7); details: structural analog of KN93 used as control; cited from earlier work
morphine-pelleted rats = experiment: Morphine antinociceptive tolerance in morphine-pelleted rats, 52° C. warm water tail-flick test; assay type: in vivo, rat
Protocol: Individual groups of eight rats were implanted with i.th. catheters and allowed to recover for 5 to 7 days.
Individual groups of eight rats were implanted with i.th. catheters and allowed to recover for 5 to 7 days. […] KN93 dose-response effect was determined and compared to its effect in inhibiting CaMKII activity.
Male Sprague-Dawley rats (250-350 g) were used in all experiments.
For i.th. drug administration, rats were prepared according to the method described by Sakura et al. (1996). While under isoflurane anesthesia, an 8 cm length of PE10 tubing (32 gauge) was inserted through an incision made in the atlantooccipital membrane to the level of the lumbar enlargement. The catheter then was secured to the musculature at the site of incision, which then was closed. The rats were allowed 5 to 7 days to recover before experiments begin. […] Intrathecally administered substances were dissolved in saline and administered in a volume of 5 μl through a tubing with calibrated length connecting the i.th. catheter with the injection syringe. Progress of the injection was monitored carefully by observing the movement of a small air bubble (1 μl in volume) through the tubing. The catheter was cleared by flushing with 9 μl saline. In all cases, a dye was injected into the cannula at the termination of the experiment to ensure correct i.th. placement.
Briefly, while under isoflurane anesthesia, a 1.5 cm incision was made on the back of the animal. […] These pellets were left for less than 7 days unless otherwise indicated.
Latency to warm water tail withdrawal response was determined in the manner described previously (Wang et al., 2001, Vanderah et al., 2001). The one-third of distal tail was immersed into a water bath maintained at 52° C. […] The data were converted to % MPE (maximal possible effect), defined as 100×(test-control)/(cutoff-control), where control was the predrug observation, test was the postdrug observation, and cutoff was 10 seconds. Dose-response curves were generated over time to determine the time of peak effect, the dose producing 50% MPE (A50), and its confidence intervals (Tallarida et al., 1986).

mice = experiment: Chronic mouse model of opioid tolerance (s.c. 75 mg morphine pellet); assay type: in vivo; details: FIG. 5
Excerpt: Additional in vivo tests corroborated initial test results showing that administration of a CaMKII inhibitor reduces or eliminates opioid tolerance and dependence. […] Administration of a CaMKII inhibitor, i.e., KN93, effectively reversed the established tolerance to opioids (FIG. 5). The effect of KN93 is dose dependent.

[3] = Acute model of opioid dependence (single s.c. morphine 100 mg/kg); assay type: in vivo
Excerpt: as §1

PKC = details: at doses administered; cited from earlier work
protein kinase A = details: at doses administered; cited from earlier work
CaMKII [4] = experiment: Spinal CaMKII activity (pCaMKII Western blot) in morphine-pelleted rats; assay type: in vivo, rat; details: lumbar spinal cord, morphine vs placebo pelleted rats, two pairs of animals, β-actin control; FIG. 4
Excerpt: The average increase of CaMKII activity from two pairs of animals was 250%.
Briefly, while under isoflurane anesthesia, a 1.5 cm incision was made on the back of the animal. Morphine and placebo pellets were implanted into the subcutaneous space and the incision was closed with wound clips. These pellets were left for less than 7 days unless otherwise indicated.
Rats were sacrificed by carbon dioxide inhalation and decapitated. The spinal column was cut through at the S1/S2 level. A 16-gauge needle was inserted in the sacral vertebral canal, attached to a syringe containing ice-cold saline, and the spinal cord was ejected through the cervical opening. The spinal cord was placed on ice in a glass Petri dish and rapidly dissected using a dissecting microscope. For consistency, the lumbar enlargement corresponding to the L1 to L6 spinal segments was excised and used for all assays. […]
Spinal segments or harvested SH-SY5Y cells were homogenized on ice in RIPA buffer (1% NP-40, 0.5% sodium deoxycholate, 0.1% sodium dodecyl sulfate (SDS), 5 mM EDTA in PBS, pH 7.4) (3 ml/g wet tissue, or 0.6 ml/10 cm dish) in the presence of protease inhibitors (0.05 mg/ml pepstatin, 0.05 mg/ml aprotinin, 0.1 mg/ml phenylmethylsulfonyl fluoride). […] ECL-detected bands were analyzed using a densitometer and. Quantity One analysis program (BioRad, Hercules, Calif.).

CaMKII (Homo sapiens, UniProt Q9UQM7), sequence (Q9UQM7 whole entry): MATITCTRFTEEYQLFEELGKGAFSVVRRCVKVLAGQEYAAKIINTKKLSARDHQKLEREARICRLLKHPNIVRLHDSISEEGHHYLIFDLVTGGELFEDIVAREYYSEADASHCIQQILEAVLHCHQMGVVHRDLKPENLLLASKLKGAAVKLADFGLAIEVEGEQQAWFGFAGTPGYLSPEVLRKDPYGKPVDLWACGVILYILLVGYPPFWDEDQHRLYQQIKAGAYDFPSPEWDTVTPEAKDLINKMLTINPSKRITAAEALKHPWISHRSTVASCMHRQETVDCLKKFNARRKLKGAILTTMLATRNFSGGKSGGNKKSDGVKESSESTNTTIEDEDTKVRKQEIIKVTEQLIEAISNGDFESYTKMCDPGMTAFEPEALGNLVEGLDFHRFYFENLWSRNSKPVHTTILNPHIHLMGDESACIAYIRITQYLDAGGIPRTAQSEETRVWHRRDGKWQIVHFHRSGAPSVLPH

Row | SMILES | prevention of opioid tolerance, acute model [1] | inhibition of CaMKII (CaMKII [2]) | effect on established morphine antinociceptive tolerance (morphine-pelleted rats; KN93 15 nmol i.th. 15 minutes before i.th. morphine, 45 minutes before tail-flick, p<0.05 vs MS group, FIG. 3) | effect on basal nociception (morphine-pelleted rats; KN93 alone, data not shown) | effect on morphine-antinociception in naïve rats (morphine-pelleted rats; naïve rats, data not shown) | effect on morphine-induced analgesia (morphine-pelleted rats; summary of test results) | effect on established opioid tolerance, chronic model (mice; chronic morphine pellet) | reversal of established opioid tolerance, acute model ([1]; already-established tolerance, FIG. 8) | prevention of opioid dependence, acute model ([3]; administered simultaneously with morphine 100 mg/kg s.c., FIG. 7) | reversal of established opioid dependence, acute model ([3]; already-established dependence, FIG. 9) | inhibition of PKC (PKC) | inhibition of protein kinase A (protein kinase A) | average increase of CaMKII activity (pCaMKII content) (CaMKII [4]) [%] | antinociceptive effect of acute i.th. morphine in morphine-pelleted vs placebo-pelleted rats (morphine-pelleted rats; two 75 mg morphine pellets s.c., day 5, i.th. morphine 10 μg, 30 minutes, FIG. 3) | antinociceptive effects of morphine after chronic morphine treatment (mice; s.c. 75 mg controlled-release pellet up to seven days)
1 | COc1ccc(S(=O)(=O)Nc2ccccc2CN(C)C/C=C/c2ccc(Cl)cc2)cc1 [KN92] | does not affect opioid tolerance | does not inhibit | – | – | – | – | – | – | – | – | – | – | – | – | –
2 | COc1ccc(S(=O)(=O)N(CCO)c2ccccc2CN(C)CC=Cc2ccc(Cl)cc2)cc1 [KN93] | prevents opioid tolerance | – | reversed; also recorded: blocked | did not alter | nor did KN93 affect | does not affect | dose-dependently reverses | dose-dependently reverses | dose-dependently prevents | dose-dependently reverses | does not inhibit | does not inhibit | – | – | –
3 | CN1CC[C@]23c4c5ccc(O)c4O[C@H]2[C@@H](O)C=C[C@H]3[C@H]1C5 [morphine] | – | – | – | – | – | – | – | – | – | – | – | – | 250 | significantly reduced antinociceptive effect | significantly reduced antinociceptive effects
